Results reported in patent US12091405B2, “Substituted pyrazole compounds as indoleamine 2,3-dioxygenase inhibitors” (Merck Sharp & Dohme LLC, priority 2018, dated 2024).

Assays:
IDO1 [1] = target: T1, IDO1 (Homo sapiens, UniProt P14902); test: IDO1 Human Whole Blood Assay; type: cell-based; parameters: Human whole blood was drawn in sodium heparin coated tubes from healthy internal donors; from tissue; host or cells: human whole blood from healthy donors, stimulated with LPS and IFNγ; details: LPS and IFNγ 100 ng/mL, overnight (18 h), kynurenine by LC/MS/MS
Procedure: IDO1 Human Whole Blood Assay
Compounds to be tested were serially diluted in ten 3-fold steps in DMSO starting from 10 mM. 3 μL of compound dilutions or DMSO alone were then dispensed from the dilution plate into a polypropylene 96-well assay plate containing 97 μL of RPMI medium using an Echo 555 acoustic liquid handler (Labcyte). LPS and IFNγ was prepared in RPMI medium to a 10× of final conc. (1000 ng/mL), final concentration is 100 ng/mL.
Human whole blood was drawn in sodium heparin coated tubes from healthy internal donors. 240 μL of blood was transferred to each of the wells of a v-bottom 96 well plate. 30 μL of compound was transferred from intermediate dilution plate, and incubated for 15 min. 30 μL from stimulants was then transferred to blood and mixed thoroughly. Plate was covered with breathable membrane and incubated at 37° C. for overnight (18 h).
On day 2, isotope labeled standard solutions of kynurenine and tryptophan was made in water at 10× concentration and 30 μL was added to the blood at 3 μM final concentration. The assay plates were centrifuged at 300×G for 10 min with no brake to separate plasma from red blood cells. 60 μL of plasma samples was removed without disturbing red blood cells. Plasma was diluted with RPMI in 1:1 ratio and proteins were precipitated out with two volumes of Acetonitrile. The plates were centrifuged at 4000×G for 60 min. 20 μL of supernatant was carefully transferred to a 384 well plate containing 40 μL of 0.1% formic acid in water and analyzed by LC/MS/MS.
LC/MS/MS analyses were performed using Thermo Fisher's LX4-TSQ Quantum Ultra system. This system consists of four Agilent binary high-performance liquid chromatography (HPLC) pumps and a TSQ Quantum Ultra triple quadrupole MS/MS instrument. For each sample, 5 μL were injected onto an Atlantis T3 column (2.1 mm×150 mm, 3 μm particle size) from Waters. The mobile phase gradient pumped at 0.8 mL/min was used to elute the analytes from the column at 25 EC. The elution started at 0% B increasing linearly to 25% B at 6.5 min, holding at 25% for 1 min, re-equilibrating to 10 min. Mobile phase A consisted of 0.1% formic acid in water. Mobile phase B consisted of 0.1% of formic acid in acetonitrile. Data were acquired in positive mode using a HESI interface. The operational parameters for the TSQ Quantum Ultra instrument were a spray voltage of 4000 V, capillary temperature of 380° C., vaporizer temperature 400° C., shealth gas 60 arbitrary units, Aux gas 20 arbitrary units, tube lens 85 and collision gas 1.2 mTorr. SRM chromatograms of kynurenine (Qi: 209.2>Q3:94.0) and internal standard (Qi: 215.3>Q3:98.2) were collected for 90 sec. The peak area was integrated by Xcalibur Quan software. The ratios between the kynurenine generated in the reaction and 2D6-Kynurenine spiked-in internal standard were used to generate percentage inhibition and IC50 values. Compounds were titrated and IC50's were calculated by 4 parameter sigmoidal curve fitting formula.
The biological activity data of selective compounds using the IDO1 human whole blood assay described above are summarized in the table below.

IDO1 [2] = target: T1, IDO1; test: IDO1 Cellular Assay in HeLa Cells Stimulated with IFNγ; type: cell-based; details: IFNγ 100 ng/mL, 300 uM L-tryptophan, about 48 hours, fluorescence readout, read-out: IDO1 HELA Cell Assay, IC50

T1 sequence (P14902 whole entry): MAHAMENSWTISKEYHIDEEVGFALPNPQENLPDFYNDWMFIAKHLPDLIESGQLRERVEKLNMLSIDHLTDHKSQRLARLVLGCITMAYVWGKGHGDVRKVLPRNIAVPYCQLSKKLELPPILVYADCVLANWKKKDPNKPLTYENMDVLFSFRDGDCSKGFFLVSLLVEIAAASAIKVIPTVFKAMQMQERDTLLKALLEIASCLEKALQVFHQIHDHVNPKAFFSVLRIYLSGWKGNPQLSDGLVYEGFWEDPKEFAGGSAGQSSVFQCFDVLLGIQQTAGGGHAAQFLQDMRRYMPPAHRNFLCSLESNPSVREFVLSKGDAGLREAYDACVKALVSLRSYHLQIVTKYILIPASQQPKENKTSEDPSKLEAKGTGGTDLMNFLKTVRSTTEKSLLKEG

SMILES	IC50 (IDO1 [1])	IC50 (IDO1 [2])
Cc1cccc(C2CCN(C(=O)Cn3nc(C(=O)N4CC[C@@H](O)[C@@H](F)C4)c4c3CCCC4)CC2)c1C [Example 35, 1-(4-(2,3-dimethylphenyl)piperidin-1-yl)-2-(3-((3S,4R)-3-fluoro-4-hydroxypiperidine-1-carbonyl)-4,5,6,7-tetrahydro-1H-indazol-1-yl) ethanone]	221 nM	1.3 nM
Cc1ccccc1C1CCN(C(=O)Cn2nc(C(=O)N3C[C@@H](C)O[C@@H](C)C3)c3c2CCC3)CC1 [Example 62, 2-(3-((2S,6R)-2,6-dimethylmorpholine-4-carbonyl)-5,6-dihydrocyclopenta[c]pyrazol-1(4H)-yl)-1-(4-(o-tolyl)piperidin-1-yl)ethan-1-one]	475 nM	9.8 nM
Cc1cccc(C2CCN(C(=O)Cn3nc(C(=O)N4C[C@@H](C)O[C@@H](C)C4)c4c3CCC4)CC2)c1C [Example 64, 2-(3-((2S,6R)-2,6-dimethylmorpholine-4-carbonyl)-5,6-dihydrocyclopenta [c]pyrazol-1(4H)-yl)-1-(4-(2,3-dimethylphenyl)piperidin-1-yl) ethanone]	296 nM	1.1 nM
Cc1cccc(C2(F)CCN(C(=O)Cn3nc(C(=O)N4C[C@@H](C)O[C@@H](C)C4)c4c3CCC4)CC2)c1C [Example 7, 2-(3-((2R,6S)-2,6-dimethylmorpholine-4-carbonyl)-5,6-dihydrocyclopenta[c]pyrazol-1(4H)-yl)-1-(4-(2,3-dimethylphenyl)-4-fluoropiperidin-1-yl)ethanone]	1210 nM	3.2 nM
Cc1c(F)cccc1C1CCN(C(=O)Cn2nc(C(=O)N3C[C@@H](C)O[C@@H](C)C3)c3c2CCC3)CC1 [Example 173, 2-{3-[(2R,6S)-2,6-dimethylmorpholine-4-carbonyl]-5,6-dihydrocyclopenta[c]pyrazol-1(4H)-yl}-1-[4-(3-fluoro-2-methylphenyl)piperidin-1-yl]ethan-1-one]	269 nM	6.4 nM
Cc1cccc(C2CCN(C(=O)Cn3nc(C(=O)N4CC[C@@H](O)[C@@H](F)C4)c4c3CCC4)CC2)c1C [Example 60, 1-(4-(2,3-dimethylphenyl)piperidin-1-yl)-2-(3-((3S,4R)-3-fluoro-4-hydroxypiperidine-1-carbonyl)-5,6-dihydrocyclopenta[c]pyrazol-1(4H)-yl)ethanone]	488 nM	3.5 nM
Cc1c(Cl)cccc1C1CCN(C(=O)Cn2nc(C(=O)N3C[C@@H](C)O[C@@H](C)C3)c3c2CCC3)CC1 [Example 82, 1-[4-(3-chloro-2-methylphenyl)piperidin-1-yl]-2-{3-[(2R,6S)-2,6-dimethylmorpholine-4-carbonyl]-5,6-dihydrocyclopenta[c]pyrazol-1(4H)-yl}ethan-1-one]	435 nM	3.5 nM
Cc1cccc(C2CCN(C(=O)Cn3nc(C(=O)N4C[C@@H](C)O[C@@H](C)C4)c4c3CCC4)CC2)c1 [Example 65, 2-(3-((2S,6R)-2,6-dimethylmorpholine-4-carbonyl)-5,6-dihydrocyclopenta [c]pyrazol-1(4H)-yl)-1-(4-(m-tolyl)piperidin-1-yl)ethanone]	652 nM	15.8 nM
Cc1cc(C2CCN(C(=O)Cn3nc(C(=O)N4C[C@@H](C)O[C@@H](C)C4)c4c3CCC4)CC2)ccc1Cl [Example 81, 1-[4-(4-chloro-3-methylphenyl)piperidin-1-yl]-2-{3-[(2R,6S)-2,6-dimethylmorpholine-4-carbonyl]-5,6-dihydrocyclopenta[c]pyrazol-1(4H)-yl}ethan-1-one]	1320 nM	2.9 nM
Cc1cccc(C2CCN(C(=O)Cn3nc(C(=O)N4CCC(O)(CF)CC4)c4c3CCCC4)CC2)c1C [Example 36, 1-(4-(2,3-dimethylphenyl)piperidin-1-yl)-2-(3-(4-(fluoromethyl)-4-hydroxypiperidine-1-carbonyl)-4,5,6,7-tetrahydro-1H-indazol-1-yl) ethanone]	50.8 nM	1.6 nM
Cc1cccc(C2CCN(C(=O)Cn3nc(C(=O)N4CC[C@H](O)[C@H](F)C4)c4c3CCC4)CC2)c1C (single isomer, unassigned) [Example 61, 1-(4-(2,3-dimethylphenyl)piperidin-1-yl)-2-(3-((3R,4S or 3S, 4R)-3-fluoro-4-hydroxypiperidine-1-carbonyl)-5,6-dihydrocyclopenta[c]pyrazol-1(4H)-yl)ethanone]	545 nM	3.7 nM
Cc1cccc(C2CCN(C(=O)Cn3nc(C(=O)N4CCN(C(=O)CO)CC4)c4c3C[C@H]3C[C@@H]43)CC2)c1C [Example 18, 1-[4-(2,3-dimethylphenyl)piperidin-1-yl]-2-{(3bR,4aR)-3-[4-(hydroxyacetyl)piperazine-1-carbonyl]-3b,4,4a,5-tetrahydro-1H-cyclopropa[3,4]cyclopenta[1,2-c]pyrazol-1-yl}ethan-1-one]	58.9 nM	2.3 nM
